Experimental data taken from ChEMBL document CHEMBL2401622, “Synthesis and in vitro evaluation of [18F]BMS-754807: a potential PET ligand for IGF-1R” (Bioorg Med Chem Lett, 2013).

What was measured:
Conditions in all cases: 0.0001 µM
[1] = Drug uptake in human pancreatic tumor at 0.1 nM after 1 hr by phosphor imager autoradiography; type: ADME
[2] = Drug uptake in human breast tumor at 0.1 nM after 1 hr by phosphor imager autoradiography; type: ADME, tissue-based
[3] = Drug uptake in human grade 4 glioblastoma at 0.1 nM after 1 hr by phosphor imager autoradiography; type: ADME

Measured: Drug uptake

C[C@@]1(C(=O)Nc2ccc([18F])nc2)CCCN1c1nc(Nc2cc(C3CC3)[nH]n2)c2cccn2n1
Active: [1] | [2] | [3]
